# Source: PubChem BioAssay AID248 (DTP/NCI, 2004)
# Where “and” joins values, the source holds several entries; their conditions need not be identical. Equal entries are not always repeated. Inconclusive results and toxic doses are left out.
# Tested on: L1210 leukemia ip in BDF1 mice, survival T/C
# Assay: NCI In Vivo Anticancer Drug Screen. Data for tumor model L1210 Leukemia (intraperitoneal) in B6D2F1 (BDF1) mice
# Settings: higher = longer survival
# Summary of the method: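 Transplantable tumor model; survival measured in treated vs vehicle control mice. Value = treated/control.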
structure (smiles),measurement,setting,value
CC(CN1CC(=O)NC(=O)C1)N1CC(=O)NC(=O)C1 (stereo not drawn),T/C,"endpoint: mean survival time, dose: 1.6 mg/kg/injection, schedule: Q03HX016 (oral), vehicle: steriod suspending solution",122 % of control
same,T/C,"endpoint: mean survival time, dose: 1.6 mg/kg/injection, schedule: Q03HX024 (ip), vehicle: steriod suspending solution",156 % of control
same,T/C,"endpoint: mean survival time, dose: 1.6 mg/kg/injection, schedule: Q03HX024 (oral), vehicle: steriod suspending solution",124 % of control
same,T/C,"endpoint: mean survival time, dose: 6.25 mg/kg/injection, schedule: Q03HX008 (ip), vehicle: steriod suspending solution",118 % of control
same,T/C,"endpoint: mean survival time, dose: 12.5 mg/kg/injection, schedule: Q01DX009 (oral), vehicle: steriod suspending solution",156 % of control
same,T/C,"endpoint: mean survival time, dose: 12.5 mg/kg/injection, schedule: Q01DX009 (sc), vehicle: steriod suspending solution",117 % of control
same,T/C,"endpoint: mean survival time, dose: 12.5 mg/kg/injection, schedule: Q01DX Z (ip), vehicle: steriod suspending solution",154 % of control
same,T/C,"endpoint: mean survival time, dose: 12.5 mg/kg/injection, schedule: Q03HX024 (oral), vehicle: steriod suspending solution",101 % of control
same,T/C,"endpoint: mean survival time, dose: 12.5 mg/kg/injection, schedule: Q04DX003 (ip), vehicle: steriod suspending solution",109 % of control
same,T/C,"endpoint: mean survival time, dose: 18.0 mg/kg/injection, schedule: Q01DX009 (ip), vehicle: saline",151 % of control
same,T/C,"endpoint: mean survival time, dose: 25.0 mg/kg/injection, schedule: Q03HX008 (ip), vehicle: steriod suspending solution",155 % of control
same,T/C,"endpoint: mean survival time, dose: 25.0 mg/kg/injection, schedule: Q04DX003 (ip), vehicle: Klucel (hydroxypropylcellulose) (HPC)",109 % of control
same,T/C,"endpoint: mean survival time, dose: 25.0 mg/kg/injection, schedule: Q04DX003 (ip), vehicle: steriod suspending solution",103 % of control
same,T/C,"endpoint: mean survival time, dose: 25.0 mg/kg/injection, schedule: Q04DX003 (iv), vehicle: water",113 % of control and 122 % of control
same,T/C,"endpoint: mean survival time, dose: 25.0 mg/kg/injection, schedule: Q04DX003 (oral), vehicle: steriod suspending solution",115 % of control
same,T/C,"endpoint: mean survival time, dose: 27.0 mg/kg/injection, schedule: Q01DX009 (ip), vehicle: saline",155 % of control
same,T/C,"endpoint: mean survival time, dose: 32.0 mg/kg/injection, schedule: Q04DX003 (ip), vehicle: saline with Tween-80",104 % of control
same,T/C,"endpoint: mean survival time, dose: 50.0 mg/kg/injection, schedule: Q01DX001 (ip), vehicle: saline",107 % of control
same,T/C,"endpoint: mean survival time, dose: 50.0 mg/kg/injection, schedule: Q01DX001 (ip), vehicle: steriod suspending solution",107 % of control
same,T/C,"endpoint: mean survival time, dose: 50.0 mg/kg/injection, schedule: Q01DX009 (oral), vehicle: steriod suspending solution",98 % of control and 121 % of control
same,T/C,"endpoint: mean survival time, dose: 50.0 mg/kg/injection, schedule: Q03HX024 (ip), vehicle: steriod suspending solution",104 % of control
same,T/C,"endpoint: mean survival time, dose: 50.0 mg/kg/injection, schedule: Q04DX003 (ip), vehicle: steriod suspending solution",100 % of control
same,T/C,"endpoint: mean survival time, dose: 50.0 mg/kg/injection, schedule: Q04DX003 (iv), vehicle: water",112 % of control and 115 % of control and 122 % of control
same,T/C,"endpoint: mean survival time, dose: 50.0 mg/kg/injection, schedule: Q06HX012 (oral), vehicle: steriod suspending solution",101 % of control
same,T/C,"endpoint: mean survival time, dose: 60.0 mg/kg/injection, schedule: Q01DX009 (ip), vehicle: saline with Tween-80",156 % of control
same,T/C,"endpoint: mean survival time, dose: 64.0 mg/kg/injection, schedule: Q04DX003 (ip), vehicle: saline with Tween-80",124 % of control
same,T/C,"endpoint: mean survival time, dose: 100.0 mg/kg/injection, schedule: Q01DX001 (ip), vehicle: saline",113 % of control
same,T/C,"endpoint: mean survival time, dose: 100.0 mg/kg/injection, schedule: Q01DX001 (oral), vehicle: steriod suspending solution",111 % of control
same,T/C,"endpoint: mean survival time, dose: 100.0 mg/kg/injection, schedule: Q01DX009 (oral), vehicle: steriod suspending solution",95 % of control and 103 % of control
same,T/C,"endpoint: mean survival time, dose: 100.0 mg/kg/injection, schedule: Q01DX Z (ip), vehicle: steriod suspending solution",113 % of control
same,T/C,"endpoint: mean survival time, dose: 100.0 mg/kg/injection, schedule: Q04DX003 (ip), vehicle: steriod suspending solution",151 % of control
same,T/C,"endpoint: mean survival time, dose: 100.0 mg/kg/injection, schedule: Q04DX003 (iv), vehicle: water",112 % of control and 115 % of control and 119 % of control
same,T/C,"endpoint: mean survival time, dose: 100.0 mg/kg/injection, schedule: Q08DX002 (ip), vehicle: steriod suspending solution",151 % of control
same,T/C,"endpoint: mean survival time, dose: 100.0 mg/kg/injection, schedule: Q08DX002 (oral), vehicle: steriod suspending solution",122 % of control
same,T/C,"endpoint: mean survival time, dose: 120.0 mg/kg/injection, schedule: Q01DX009 (ip), vehicle: saline with Tween-80",118 % of control
same,T/C,"endpoint: mean survival time, dose: 128.0 mg/kg/injection, schedule: Q01DX009 (ip), vehicle: saline with Tween-80",112 % of control
same,T/C,"endpoint: mean survival time, dose: 128.0 mg/kg/injection, schedule: Q04DX003 (oral), vehicle: saline with Tween-80",155 % of control
same,T/C,"endpoint: mean survival time, dose: 200.0 mg/kg/injection, schedule: Q01DX001 (ip), vehicle: saline",120 % of control
same,T/C,"endpoint: mean survival time, dose: 200.0 mg/kg/injection, schedule: Q01DX001 (oral), vehicle: steriod suspending solution",107 % of control
same,T/C,"endpoint: mean survival time, dose: 200.0 mg/kg/injection, schedule: Q04DX003 (oral), vehicle: steriod suspending solution",153 % of control
same,T/C,"endpoint: mean survival time, dose: 200.0 mg/kg/injection, schedule: Q08DX002 (oral), vehicle: steriod suspending solution",120 % of control
same,T/C,"endpoint: mean survival time, dose: 240.0 mg/kg/injection, schedule: Q01DX009 (ip), vehicle: saline with Tween-80",96 % of control
same,T/C,"endpoint: mean survival time, dose: 400.0 mg/kg/injection, schedule: Q01DX001 (oral), vehicle: steriod suspending solution",114 % of control
same,T/C,"endpoint: mean survival time, dose: 400.0 mg/kg/injection, schedule: Q04DX003 (oral), vehicle: steriod suspending solution",155 % of control
same,T/C,"endpoint: mean survival time, dose: 400.0 mg/kg/injection, schedule: Q08DX002 (ip), vehicle: steriod suspending solution",156 % of control
same,T/C,"endpoint: mean survival time, dose: 400.0 mg/kg/injection, schedule: Q08DX002 (oral), vehicle: steriod suspending solution",119 % of control
same,T/C,"endpoint: mean survival time, dose: 512.0 mg/kg/injection, schedule: Q04DX003 (ip), vehicle: saline with Tween-80",155 % of control
same,T/C,"endpoint: mean survival time, dose: 800.0 mg/kg/injection, schedule: Q04DX003 (ip), vehicle: Klucel (hydroxypropylcellulose) (HPC)",154 % of control
same,T/C,"endpoint: mean survival time, dose: 800.0 mg/kg/injection, schedule: Q04DX003 (ip), vehicle: water",120 % of control
same,T/C,"endpoint: mean survival time, dose: 800.0 mg/kg/injection, schedule: Q08DX002 (ip), vehicle: steriod suspending solution",111 % of control
same,T/C,"endpoint: mean survival time, dose: 1024.0 mg/kg/injection, schedule: Q04DX003 (oral), vehicle: saline with Tween-80",120 % of control
same,T/C,"endpoint: mean survival time, dose: 2048.0 mg/kg/injection, schedule: Q04DX003 (oral), vehicle: saline with Tween-80",94 % of control
same,T/C,"endpoint: median survival time, dose: 4.0 mg/kg/injection, schedule: Q03HX024 (ip), vehicle: Klucel (hydroxypropylcellulose) (HPC)",153 % of control
same,T/C,"endpoint: median survival time, dose: 8.0 mg/kg/injection, schedule: Q01DX009 (sc), vehicle: saline with Tween-80",120 % of control
same,T/C,"endpoint: median survival time, dose: 8.0 mg/kg/injection, schedule: Q03HX008 (ip), vehicle: saline with Tween-80",156 % of control
same,T/C,"endpoint: median survival time, dose: 12.5 mg/kg/injection, schedule: Q01DX009 (ip), vehicle: Klucel (hydroxypropylcellulose) (HPC)",150 % of control
same,T/C,"endpoint: median survival time, dose: 12.5 mg/kg/injection, schedule: Q03HX008 (ip), vehicle: Klucel (hydroxypropylcellulose) (HPC)",150 % of control
same,T/C,"endpoint: median survival time, dose: 16.0 mg/kg/injection, schedule: Q03HX008 (ip), vehicle: saline with Tween-80",154 % of control
same,T/C,"endpoint: median survival time, dose: 16.0 mg/kg/injection, schedule: Q03HX024 (ip), vehicle: saline with Tween-80",113 % of control
same,T/C,"endpoint: median survival time, dose: 25.0 mg/kg/injection, schedule: Q01DX009 (ip), vehicle: Klucel (hydroxypropylcellulose) (HPC)",150 % of control
same,T/C,"endpoint: median survival time, dose: 25.0 mg/kg/injection, schedule: Q03HX008 (ip), vehicle: Klucel (hydroxypropylcellulose) (HPC)",151 % of control and 155 % of control
same,T/C,"endpoint: median survival time, dose: 45.0 mg/kg/injection, schedule: Q03HX024 (ip), vehicle: Klucel (hydroxypropylcellulose) (HPC)",155 % of control
same,T/C,"endpoint: median survival time, dose: 50.0 mg/kg/injection, schedule: Q03HX008 (ip), vehicle: Klucel (hydroxypropylcellulose) (HPC)",115 % of control
same,T/C,"endpoint: median survival time, dose: 64.0 mg/kg/injection, schedule: Q01DX001 (ip), vehicle: saline with Tween-80",105 % of control
same,T/C,"endpoint: median survival time, dose: 64.0 mg/kg/injection, schedule: Q03HX008 (ip), vehicle: saline with Tween-80",156 % of control
same,T/C,"endpoint: median survival time, dose: 64.0 mg/kg/injection, schedule: Q03HX016 (ip), vehicle: saline with Tween-80",96 % of control
same,T/C,"endpoint: median survival time, dose: 64.0 mg/kg/injection, schedule: Q08DX002 (ip), vehicle: saline with Tween-80",109 % of control
same,T/C,"endpoint: median survival time, dose: 100.0 mg/kg/injection, schedule: Q01DX001 (ip), vehicle: other",122 % of control
same,T/C,"endpoint: median survival time, dose: 100.0 mg/kg/injection, schedule: Q01DX001 (ip), vehicle: steriod suspending solution",122 % of control
same,T/C,"endpoint: median survival time, dose: 100.0 mg/kg/injection, schedule: Q04DX003 (ip), vehicle: other",122 % of control
same,T/C,"endpoint: median survival time, dose: 108.0 mg/kg/injection, schedule: Q01DX001 (ip), vehicle: Klucel (hydroxypropylcellulose) (HPC)",114 % of control and 120 % of control
same,T/C,"endpoint: median survival time, dose: 128.0 mg/kg/injection, schedule: Q01DX001 (ip), vehicle: saline with Tween-80",109 % of control
same,T/C,"endpoint: median survival time, dose: 128.0 mg/kg/injection, schedule: Q01DX009 (sc), vehicle: saline with Tween-80",107 % of control
same,T/C,"endpoint: median survival time, dose: 128.0 mg/kg/injection, schedule: Q04DX003 (ip), vehicle: saline with Tween-80",124 % of control
same,T/C,"endpoint: median survival time, dose: 128.0 mg/kg/injection, schedule: Q08DX002 (ip), vehicle: saline with Tween-80",119 % of control
same,T/C,"endpoint: median survival time, dose: 168.0 mg/kg/injection, schedule: Q04DX003 (ip), vehicle: Klucel (hydroxypropylcellulose) (HPC)",152 % of control and 155 % of control
same,T/C,"endpoint: median survival time, dose: 180.0 mg/kg/injection, schedule: Q01DX001 (ip), vehicle: Klucel (hydroxypropylcellulose) (HPC)",118 % of control and 120 % of control
same,T/C,"endpoint: median survival time, dose: 200.0 mg/kg/injection, schedule: Q01DX001 (ip), vehicle: steriod suspending solution",155 % of control
same,T/C,"endpoint: median survival time, dose: 256.0 mg/kg/injection, schedule: Q01DX001 (ip), vehicle: saline with Tween-80",113 % of control
same,T/C,"endpoint: median survival time, dose: 400.0 mg/kg/injection, schedule: Q01DX001 (ip), vehicle: steriod suspending solution",150 % of control and 155 % of control
same,T/C,"endpoint: median survival time, dose: 400.0 mg/kg/injection, schedule: Q04DX003 (ip), vehicle: other",94 % of control
same,T/C,"endpoint: median survival time, dose: 512.0 mg/kg/injection, schedule: Q08DX002 (ip), vehicle: saline with Tween-80",150 % of control
same,T/C,"endpoint: median survival time, dose: 700.0 mg/kg/injection, schedule: Q04DX003 (ip), vehicle: Klucel (hydroxypropylcellulose) (HPC)",105 % of control and 106 % of control
